Patent publication US10798941B2, “Microbiocidal oxadiazole derivatives” (SYNGENTA PARTICIPATIONS AG, priority 2016, dated 2020)

Key:
[1] = system: Puccinia recondita f. Sp. Tritici; experiment: Puccinia recondita f. sp. tritici / wheat / leaf disc preventative (brown rust); format: in vivo; details: foliar, 168 h, 200 ppm in the applied formulation, wheat leaf segments cv. Kanzler, preventative, inoculated 1 day after application, assessed 7 to 9 days after application, vs untreated, read-out: disease control
Outline: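 Preventative leaf-segment test: spray application of diluted formulated compound on wheat cv. Kanzler, spore inoculation after 1 day. Percent control relative to untreated segments rated 7 to 9 days post-application, with incubation at 19° C, 75% relative humidity, 12 h photoperiod.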

[2] = system: Puccinia recondita f. Sp. Tritici; experiment: Puccinia recondita f. sp. tritici / wheat / leaf disc curative (brown rust); format: in vivo; details: foliar, 144 h, 200 ppm in the applied formulation, wheat leaf segments cv. Kanzler, applied 1 day after inoculation, assessed 6 to 8 days after application, vs untreated, read-out: disease control
Outline: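 Curative leaf-segment test, cv. Kanzler: spore inoculation, dark storage 19° C/75% RH, compound spray 1 day post-inoculation. Then 12 h light/12 h dark, 19° C, 75% RH. Read-out: % disease control vs untreated check, 6–8 d after application.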

Phakopsora pachyrhizi = Phakopsora pachyrhizi / soybean / leaf disc preventative (Asian soybean rust); format: in vivo; details: foliar, 288 h, 200 ppm in the applied formulation, soybean leaf disks, inoculated one day after application, assessed 12 to 14 days after application, vs untreated, read-out: disease control
Outline: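 Read-out is percent disease control relative to untreated check discs, assessed once untreated discs show adequate disease, 12 to 14 days after application. Compounds, tested at 200 ppm in the applied formulation, are sprayed onto soybean leaf discs one day before inoculation with a spore suspension.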

[3] = system: Glomerella Lagenarium (Colletotrichum Lagenarium); experiment: Glomerella lagenarium (Colletotrichum lagenarium) liquid culture / cucumber / preventative (anthracnose); format: cell-based; details: Colletotrichum orbiculare; 20 ppm in the applied formulation; liquid culture in PDB, 24° C., inhibition of growth measured photometrically 3 to 4 days after application, vs untreated; read-out: disease control
Outline: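 Conidia from cryogenic storage were mixed into potato dextrose broth. This was added to compound diluted from DMSO into 0.025% Tween20, tested at 20 ppm. Plates were incubated in the dark at 24 °C and 96% relative humidity, and growth was read photometrically after 2–7 days as % activity versus untreated check.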

| SMILES | melting point [°C] | pest or weed control at 200 ppm [1] [%] | pest or weed control at 200 ppm [2] [%] | pest or weed control at 200 ppm (Phakopsora pachyrhizi) [%] | inhibition of growth at 20 ppm [3] [%] |
| --- | --- | --- | --- | --- | --- |
| FC(F)(F)c1nc(-c2ccc(Cn3cc(-c4ccccn4)nn3)cc2)no1 [Compound 1.22, 3-[4-[[4-(2-pyridyl)triazol-1-yl]methyl]phenyl]-5-(trifluoromethyl)-1,2,4-oxadiazole] | 160.2 to 162.4 | ≥ 80 | ≥ 80 | ≥ 80 | ≥ 80 |
| CC(C)Cc1cn(Cc2ccc(-c3noc(C(F)(F)F)n3)cc2)nn1 [Compound 1.26, 3-[4-[(4-isobutyltriazol-1-yl)methyl]phenyl]-5-(trifluoromethyl)-1,2,4-oxadiazole] | 113.9 to 115.7 | ≥ 80 | ≥ 80 | ≥ 80 | ≥ 80 |
| CC(C)(C)c1cn(Cc2ccc(-c3noc(C(F)(F)F)n3)cc2)nn1 [Compound 1.27, 3-[4-[(4-tert-butyltriazol-1-yl)methyl]phenyl]-5-(trifluoromethyl)-1,2,4-oxadiazole] | 90.4 to 92.3 | ≥ 80 | ≥ 80 | ≥ 80 | ≥ 80 |
| CC(C)(NC(=O)c1ccccc1)c1cn(Cc2ccc(-c3noc(C(F)(F)F)n3)cc2)nn1 [Compound 1.30, N-[1-methyl-1-[1-[[4-[5-(trifluoromethyl)-1,2,4-oxadiazol-3-yl]phenyl]methyl]triazol-4-yl]ethyl]benzamide] | 157.6 to 161.9 | ≥ 80 | ≥ 80 | ≥ 80 | ≥ 80 |

Second part, led by results:

| melting point [°C] | SMILES | pest or weed control at 200 ppm [1] [%] | pest or weed control at 200 ppm [2] [%] | pest or weed control at 200 ppm (Phakopsora pachyrhizi) [%] | inhibition of growth at 20 ppm [3] [%] |
| --- | --- | --- | --- | --- | --- |
| 60 to 70 | CN(C)CCOC(=O)c1cnn(Cc2ccc(-c3noc(C(F)(F)F)n3)cc2)c1 [Compound 1.265, 2-(dimethylamino)ethyl 1-[[4-[5-(trifluoromethyl)-1,2,4-oxadiazol-3-yl]phenyl]methyl]pyrazole-4-carboxylate] | ≥ 80 | ≥ 80 | ≥ 80 | ≥ 80 |
| 107.6 to 109.5 | FC(F)(F)c1nc(-c2ccc(Cn3ccnn3)cc2)no1 [Compound 1.32, 3-[4-(triazol-1-ylmethyl)phenyl]-5-(trifluoromethyl)-1,2,4-oxadiazole] | ≥ 80 | ≥ 80 | ≥ 80 | ≥ 80 |
| 125 to 135 | O=C(c1cnn(Cc2ccc(-c3noc(C(F)(F)F)n3)cc2)c1)N1CCOCC1 [Compound 1.261, morpholino-[1-[[4-[5-(trifluoromethyl)-1,2,4-oxadiazol-3-yl]phenyl]methyl]pyrazol-4-yl]methanone] | ≥ 80 | ≥ 80 | ≥ 80 | ≥ 80 |
| 105.4 to 107.9 | FC(F)(F)c1nc(-c2ccc(Cn3nccn3)cc2)no1 [Compound 1.33, 3-[4-(triazol-2-ylmethyl)phenyl]-5-(trifluoromethyl)-1,2,4-oxadiazole] | ≥ 80 | ≥ 80 | ≥ 80 | ≥ 80 |
| 135 to 137 | CON(C)C(=O)c1cn(Cc2ccc(-c3noc(C(F)(F)F)n3)cc2)nn1 [Compound 1.275, N-methoxy-N-methyl-1-[[4-[5-(trifluoromethyl)-1,2,4-oxadiazol-3-yl]phenyl]methyl]triazole-4-carboxamide] | ≥ 80 | ≥ 80 | ≥ 80 | ≥ 80 |
